Laboratory results: patent US11426397B2, “Piperidinyl- and piperazinyl-substituted heteroaromatic carboxamides as modulators of GPR6” (TAKEDA PHARMACEUTICAL COMPANY LIMITED, priority 2017, dated 2022)

Target: T1, GPR6 receptor expressed in CHO-K1 cells (Homo sapiens, UniProt P46095)
T1 construct: expressed in transfected cells
Assay: In vitro inhibition of cAMP (EC50), cell-based HTRF cAMP assay
Conditions: inhibition of constitutive cAMP activity of GPR6 in CHO-K1 cells
Outline: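 Tetracycline-inducible CHO-K1 line, GPR6 expression induced 20 h with 2 μg/mL doxycycline. Compounds incubated 45 min at 37 °C in Ringer's buffer (pH 7.4) with 0.5% fatty acid free BSA and 300 μM IBMX. Constitutive cAMP read by Lance HTRF; EC50 from four-parameter logistic fit.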

T1 sequence (P46095 whole entry): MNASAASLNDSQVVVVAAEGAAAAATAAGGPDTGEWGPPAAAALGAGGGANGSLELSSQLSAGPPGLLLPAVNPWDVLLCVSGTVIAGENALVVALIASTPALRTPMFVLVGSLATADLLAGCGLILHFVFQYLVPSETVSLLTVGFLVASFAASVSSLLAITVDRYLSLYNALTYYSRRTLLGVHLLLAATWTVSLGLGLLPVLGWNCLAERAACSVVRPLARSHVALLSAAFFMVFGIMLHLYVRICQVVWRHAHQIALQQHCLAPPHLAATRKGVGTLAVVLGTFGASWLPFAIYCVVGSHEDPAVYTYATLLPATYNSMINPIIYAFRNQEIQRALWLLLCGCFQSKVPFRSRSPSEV

| pEC50, in vitro inhibition of cAMP | Structure (SMILES) |
| --- | --- |
| 6.7 | COc1nc2c(cc1C(=O)Nc1cc(C#N)ccc1N1CCC(Oc3ccc(F)cc3F)CC1)CCC2 [Example 196, N-(5-cyano-2-(4-(2,4-difluorophenoxy)piperidin-1-yl)phenyl)-2-methoxy-6,7-dihydro-5H-cyclopenta[b]pyridine-3-carboxamide] |
| 6.6 | Cn1cccc(C(=O)Nc2cc(C#N)ccc2N2CCC(Oc3ncc(F)cc3F)CC2)c1=O [Example 293, N-(5-cyano-2-(4-((3,5-difluoropyridin-2-yl)oxy)piperidin-1-yl)phenyl)-1-methyl-2-oxo-1,2-dihydropyridine-3-carboxamide] |
| 6.7 | COc1c(C(=O)Nc2ccc(C#N)nc2N2CCC(Oc3ccc(F)cc3F)CC2)cnn1C [Example 256, N-(6-cyano-2-(4-(2,4-difluorophenoxy)piperidin-1-yl)pyridin-3-yl)-5-methoxy-1-methyl-H-pyrazole-4-carboxamide] |
| 6.9 | COc1ncccc1C(=O)Nc1cc(C#N)ccc1N1CCN(Cc2ccc(F)cc2C#N)CC1 [Example 291, N-(5-cyano-2-(4-(2-cyano-4-fluorobenzyl)piperazin-1-yl)phenyl)-2-methoxynicotinamide] |
| 7.0 | COc1ncccc1C(=O)Nc1cc(CO)cnc1N1CCC(Oc2ccc(F)cc2F)CC1 [Example 34, N-(2-(4-(2,4-difluorophenoxy)piperidin-1-yl)-5-(hydroxymethyl)pyridin-3-yl)-2-methoxynicotinamide] |
| 7.0 | N#Cc1ccc(N2CCC(Oc3ccc(F)cc3F)CC2)c(NC(=O)c2ccc[nH]c2=O)c1 [Example 274] |
| 5.3 | O=C(Nc1ccccc1N1CCN(C(=O)c2ccc(Cl)cc2)CC1)c1ccncn1 [Example 259, N-(2-(4-(4-chlorobenzoyl)piperazin-1-yl)phenyl)pyrimidine-4-carboxamide] |
| 6.6 | Cn1cc(C(=O)Nc2cc(C#N)ccc2N2CCC(Oc3ccc(F)cc3F)CC2)nn1 [Example 145, N-(5-cyano-2-(4-(2,4-difluorophenoxy)piperidin-1-yl)phenyl)-1-methyl-1H-1,2,3-triazole-4-carboxamide] |
| 7.3 | COc1ccncc1C(=O)Nc1ccc(C#N)cc1N1CCC(Oc2ccc(F)cc2F)CC1 [Example 92, N-(4-cyano-2-(4-(2,4-difluorophenoxy)piperidin-1-yl)phenyl)-4-methoxynicotinamide] |
| 6.3 | N#Cc1ccc(N2CCC(Oc3ccc(F)cc3F)CC2)c(NC(=O)c2ccon2)c1 [Example 117, N-(5-cyano-2-(4-(2,4-difluorophenoxy)piperidin-1-yl)phenyl)isoxazole-3-carboxamide] |
| 5.9 | COc1ccccc1CN1CCN(c2ccc(C#N)cc2NC(=O)c2cccnc2OC)CC1 [Example 247, N-(5-cyano-2-(4-(2-methoxybenzyl)piperazin-1-yl)phenyl)-2-methoxynicotinamide] |
| 6.3 | N#Cc1ccc(N2CCC(Oc3ccc(F)cc3F)CC2)c(NC(=O)c2cccnn2)c1 [Example 126, N-(5-cyano-2-(4-(2,4-difluorophenoxy)piperidin-1-yl)phenyl)pyridazine-3-carboxamide] |
| 7.0 | COc1ccc(OC2CCN(c3ccc(S(C)(=O)=O)cc3NC(=O)c3cn(CF)nc3OC)CC2)c(F)c1 [Example 2, N-(2-(4-(2-fluoro-4-methoxyphenoxy)piperidin-1-yl)-5-(methylsulfonyl)phenyl)-1-(fluoromethyl)-3-methoxy-1H-pyrazole-4-carboxamide] |
| 6.8 | COc1ncccc1C(=O)Nc1cnc(C(=O)N[C@@H]2CCOC2)cc1N1CCC(Oc2ccc(F)cc2F)CC1 [Example 251, (R)-4-(4-(2,4-difluorophenoxy)piperidin-1-yl)-5-(2-methoxynicotinamido)-N-(tetrahydrofuran-3-yl)picolinamide] |
| 6.1 | Cc1nc(C(=O)Nc2cc(C#N)ccc2N2CCC(Oc3ccc(F)cc3F)CC2)co1 [Example 43, N-(5-cyano-2-(4-(2,4-difluorophenoxy)piperidin-1-yl)phenyl)-2-methyloxazole-4-carboxamide] |
| 6.4 | COc1nn(C)cc1C(=O)Nc1cc(C#N)ncc1N1CCN(Cc2cc(F)c(F)c(F)c2)CC1 [Example 267, N-(2-cyano-5-(4-(3,4,5-trifluorobenzyl)piperazin-1-yl)pyridin-4-yl)-3-methoxy-1-methyl-1H-pyrazole-4-carboxamide] |
| 6.1 | N#Cc1ccc(N2CCC(Oc3ccc(F)cc3F)CC2)c(NC(=O)c2cocn2)c1 [Example 122, N-(5-cyano-2-(4-(2,4-difluorophenoxy)piperidin-1-yl)phenyl)oxazole-4-carboxamide] |
| <5.7 | COc1nccnc1C(=O)Nc1cc(C#N)ccc1N1CCC(Oc2ccc(F)cc2F)CC1 [Example 94, N-(5-cyano-2-(4-(2,4-difluorophenoxy)piperidin-1-yl)phenyl)-3-methoxypyrazine-2-carboxamide] |

| pEC50, in vitro inhibition of cAMP | Structure (SMILES) |
| --- | --- |
| 6.6 | N#Cc1ccc(N2CCC(Oc3ccc(F)cc3F)CC2)c(NC(=O)c2cc3n(n2)CCC3)c1 [Example 107, N-(5-cyano-2-(4-(2,4-difluorophenoxy)piperidin-1-yl)phenyl)-5,6-dihydro-4H-pyrrolo[1,2-b]pyrazole-2-carboxamide] |
| 6.4 | COc1nn(C)cc1C(=O)Nc1cc(C#N)ccc1N1CCC(S(=O)(=O)c2cccc(F)c2)CC1 [Example 97, N-(5-cyano-2-(4-((3-fluorphenyl)sulfonyl)piperidin-1-yl)phenyl)-3-methoxy-1-methyl-1H-pyrazole-4-carboxamide] |
| 7.4 | COc1ncccc1C(=O)Nc1cc(S(C)(=O)=O)ccc1N1CCC(Oc2ccc(F)cc2F)CC1 [Example 5, N-(2-(4-(2,4-difluorophenoxy)piperidin-1-yl)-5-(methylsulfonyl)phenyl)-2-methoxynicotinamide] |
| 7.4 | COc1nc(C)ncc1C(=O)Nc1cc(C#N)ccc1N1CCC(Oc2ccc(F)cc2F)CC1 [Example 278] |
| 7.2 | COc1ccsc1C(=O)Nc1cc(C#N)ccc1N1CCC(Oc2ccc(F)cc2F)CC1 [Example 46, N-(5-cyano-2-(4-(2,4-difluorophenoxy)piperidin-1-yl)phenyl)-3-methoxythiophene-2-carboxamide] |
| 6.7 | COc1ccc(CN2CCN(c3ncc(C#N)cc3NC(=O)c3cn(C)nc3OC)CC2)cc1 [Example 157, N-(5-cyano-2-(4-(4-methoxybenzyl)piperazin-1-yl)pyridin-3-yl)-3-methoxy-1-methyl-1H-pyrazole-4-carboxamide] |
| 6.9 | COc1ncccc1C(=O)Nc1cnc(C#N)cc1N1CCC(Oc2ccc(F)cc2F)CC1 [Example 270, N-(6-cyano-4-(4-(2,4-difluorophenoxy)piperidin-1-yl)pyridin-3-yl)-2-methoxynicotinamide] |
| 6.0 | COc1ncccc1C(=O)Nc1cc(C#N)ccc1N1CCN(C(C)c2ccc(F)cc2)CC1 (stereo not drawn) [Example 288] |
| 7.2 | COc1cncc(C(=O)Nc2cc(C#N)ccc2N2CCC(Oc3ccc(F)cc3F)CC2)n1 [Example 129, N-(5-cyano-2-(4-(2,4-difluorophenoxy)piperidin-1-yl)phenyl)-6-methoxypyrazine-2-carboxamide] |
| 6.6 | COc1nn(C)cc1C(=O)Nc1cc(C#N)cnc1N1CCN(Cc2c(F)cc(F)c(OC)c2F)CC1 [Example 171, N-(5-cyano-2-(4-(2,4,6-trifluoro-3-methoxybenzyl)piperazin-1-yl)pyridin-3-yl)-3-methoxy-1-methyl-1H-pyrazole-4-carboxamide] |
| 7.5 | Cn1cccc(C(=O)Nc2cc(S(C)(=O)=O)ccc2N2CCC(Oc3ccc(F)cc3F)CC2)c1=O [Example 3, N-(2-(4-(2,4-difluorophenoxy)piperidin-1-yl)-5-(methylsulfonyl)phenyl)-1-methyl-2-oxo-1,2-dihydropyridine-3-carboxamide] |
| 6.5 | Cc1cnc(C(=O)Nc2cc(C#N)ccc2N2CCC(Oc3ccc(F)cc3F)CC2)cn1 [Example 123, N-(5-cyano-2-(4-(2,4-difluorophenoxy)piperidin-1-yl)phenyl)-5-methylpyrazine-2-carboxamide] |
| 5.8 | COc1c(C(=O)Nc2cc(C#N)ccc2N2CCC(Oc3ccc(F)cc3F)CC2)nnn1Cc1ccccc1 [Example 220, 1-benzyl-N-(5-cyano-2-(4-(2,4-difluorophenoxy)piperidin-1-yl)phenyl)-5-methoxy-1H-1,2,3-triazole-4-carboxamide] |
| 7.0 | COc1cccc(C(=O)Nc2cc(C#N)ccc2N2CCC(Oc3ccc(F)cc3F)CC2)n1 [Example 175, N-(5-cyano-2-(4-(2,4-difluorophenoxy)piperidin-1-yl)phenyl)-6-methoxypicolinamide] |
| 6.6 | Cn1cccc(C(=O)Nc2cc(C#N)ccc2N2CCC(Oc3cc(F)cnc3F)CC2)c1=O [Example 292, N-(5-cyano-2-(4-((2,5-difluoropyridin-3-yl)oxy)piperidin-1-yl)phenyl)-1-methyl-2-oxo-1,2-dihydropyridine-3-carboxamide] |
| 5.9 | COc1c(C)cc(Cl)cc1C(=O)Nc1cc(C#N)ccc1N1CCC(Oc2ccc(F)cc2F)CC1 [Example 195] |
| <5.7 | CC(=O)n1ncc2ccc(NC(=O)c3ccccn3)c(N3CCC(Oc4ccc(F)cc4F)CC3)c21 [Example 76, N-(1-acetyl-7-(4-(2,4-difluorophenoxy)piperidin-1-yl)-1H-indazol-6-yl)picolinamide] |
| 7.1 | COc1ccc(C(=O)Nc2cc(C#N)ccc2N2CCC(Oc3ccc(F)cc3F)CC2)c(OC)c1 [Example 235, N-(5-cyano-2-(4-(2,4-difluorophenoxy)piperidin-1-yl)phenyl)-2,4-dimethoxybenzamide] |
